Like-named read-outs stand apart in the source and are kept apart here.
What was measured:
[1] = Single ascending dose (SAD) study in healthy male volunteers: pharmacokinetics; type: in vivo, human; details: for Dose proportionality, Slope Estimate: 6 to 24 mg, n 18, power model; for Dose proportionality, Coefficient of determination / Dose proportionality, Intercept Estimate: n 18
Protocol: (§1) Initially in the single ascending dose (SAD) study the safety, tolerability, and pharmacokinetics of the compound of Formula I at 6 mg, 12 mg, and 24 mg doses in healthy human male volunteers were evaluated. In this study, the healthy male volunteers within the mean age group of 28.7-35 years were orally administered an investigational medicinal product (IMP) or a placebo after an overnight fast (of at least 8 hours). The IMP used in this study was a hard gelatin capsule comprising the compound of Formula I of varying sizes containing either 6 mg or 24 mg of the compound of Formula I and the excipients. For the 12 mg dose, two capsules of 6 mg were used. The placebo formulation containing the excipients matched the compound of Formula I capsules in shape, size, and color. […] The median time of maximum concentration (Tmax: 2.5-3 hours, across dose range) was independent of the dose level. Dose-related increases in exposure (AUC and Cmax) were observed. […] The inter-subject variability, for the PK parameters, was generally higher in the 12 mg dose group when compared with that in the 6 mg and 24 mg dose groups (Table 07, and FIG. 1)
Referring to FIG. 1, The dose proportionality assessment using ANCOVA was assessed in the PK analysis set. […] The estimates for the slope for all exposure parameters were between 0.9833 and 1.016.

[2] = SAD study in healthy male volunteers: safety and tolerability; type: in vivo, human; details: single-dose 6 mg, 12 mg and 24 mg
Protocol: as §1
There were no clinically significant changes in laboratory parameters, and no clinically significant changes in vital signs or electrocardiogram were recorded for any subject.

in vivo = type: in vivo; details: 14-day study
[3] = Pharmacokinetics in CML patients by dose cohort; details: for Cmin: cycle 2, CML patients, oral; for AUC(0-t) / Cmax: human, plasma, po
Protocol: A±5 minutes window permitted till 4 hours PK sample collection. A±10 minutes window permitted for subsequent PK sample collection. Days 3, 8, 15, and 22 of Cycle 1:30 (±10) minutes Predose only. […] A #5 minutes window permitted till 4 hours PK sample collection. A #10 minutes window permitted for subsequent PK sample collection. Days 8, 15, and 22 of Cycle 2:30 (±10) minutes Predose only. Cycle 3 onwards: Predose samples on Day 1.
Pharmacokinetic analysis was performed using non-compartmental analysis. The actual elapsed time from dose was used in the final PK parameter calculations. Plasma concentrations and PK parameters for the compound of Formula I were listed and summarized by dose cohort using descriptive statistics (n, mean, standard deviation, minimum, median, and maximum). Geometric mean and geometric coefficient of variation were calculated for PK parameters. Additionally, mean concentration profiles by dose cohort and cycle were illustrated. Dose proportionality of Cmax and AUC(0-24) was assessed graphically for Cycle 1 and Cycle 2. Dose proportionality was statistically evaluated using the power model approach, whenever the number of patients was at least 3 for a given cohort. Time to steady-state (Ctrough) was evaluated graphically. Differences among dose levels in CL/F and V/F, and dose-normalized Cmax and AUC(0-24) were explored using an analysis of variance.
The PK parameters for the study were summarized by treatment using descriptive (N, n, mean, standard deviation [SD], coefficient of variation [CV] % minimum, median, maximum, geometric mean and CV %) statistics, except for Tmax. For Tmax, the number of subjects, minimum, median, and maximum are reported.

[4] = male, human, plasma, oral, 6 mg (N = 6), mean
[5] = male, human, plasma, oral, 12 mg (N = 6), mean
[6] = male, human, plasma, oral, 24 mg (N = 6), mean

Cc1ccc(C(=O)NNC(=O)c2c(C)cccc2Cl)cc1C#Cc1cnc2ccccc2c1 [compound of Formula I, N′-(2-chloro-6-methylbenzoyl)-4-methyl-3-[2-(3-quinolyl)ethynyl]-benzohydrazide]
CL/F ([1]; 6 mg (N = 6), geometric mean): 3.708 L/h | AUC(0-inf)/D ([1]; 6 mg (N = 6), mean): 289 [ng/mL × hour]/mg | CL/F ([1]; 12 mg (N = 6), geometric mean): 4.956 L/h | AUC(0-inf)/D ([1]; 12 mg (N = 6), mean): 230.3 [ng/mL × hour]/mg | Tmax ([1]; 12 mg (N = 6), median): 3 h | CL/F ([1]; 24 mg (N = 6), geometric mean): 3.8 L/h | AUC(0-inf)/D ([1]; 24 mg (N = 6), mean): 274.3 [ng/mL × hour]/mg | Tmax ([1]; 24 mg (N = 6), median): 2.75 h | Dose proportionality, Slope Estimate ([1]; AUC(0-inf) (ng*h/mL)): 0.9833 | Dose proportionality, Coefficient of determination ([1]; AUC(0-inf) (ng*h/mL)): 0.6145 | Dose proportionality, Intercept Estimate ([1]; AUC(0-inf) (ng*h/mL)): 5.534 | Dose proportionality, Slope Estimate ([1]; AUC(0-last) (ng*h/mL)): 1.016 | Dose proportionality, Coefficient of determination ([1]; AUC(0-last) (ng*h/mL)): 0.6425 | Dose proportionality, Intercept Estimate ([1]; AUC(0-last) (ng*h/mL)): 5.389 | Dose proportionality, Slope Estimate ([1]; Cmax (ng/mL)): 0.9884 | Dose proportionality, Coefficient of determination ([1]; Cmax (ng/mL)): 0.6832 | Dose proportionality, Intercept Estimate ([1]; Cmax (ng/mL)): 3.470 | apparent systemic clearance (CL/F) ([1]; across dose range 6, 12, 24 mg): 3.708 to 4.956 L/h | Vd/F ([1]; male, human, plasma, oral, 6 mg, 6 mg (N = 6), geometric mean, read-out: Vz/F): 91.6 L | half-life ([1]; male, human, plasma, oral, 6 mg, 6 mg (N = 6), geometric mean, read-out: t1/2 (converted)): 17.1 h | AUC(0-t) ([1]; male, human, plasma, oral, 6 mg, 6 mg (N = 6), mean, read-out: AUC(0-24)): 1140 ng·h/mL | AUC(0-t) ([1]; male, human, plasma, oral, 6 mg, 6 mg (N = 6), mean, read-out: AUC(0-last)): 1570 ng·h/mL | Vd/F ([1]; male, human, plasma, oral, 12 mg, 12 mg (N = 6), geometric mean, read-out: Vz/F): 90.8 L | half-life ([1]; male, human, plasma, oral, 12 mg, 12 mg (N = 6), geometric mean, read-out: t1/2 (converted)): 12.7 h | AUC(0-t) ([1]; male, human, plasma, oral, 12 mg, 12 mg (N = 6), mean, read-out: AUC(0-24)): 1920 ng·h/mL | AUC(0-t) ([1]; male, human, plasma, oral, 12 mg, 12 mg (N = 6), mean, read-out: AUC(0-last)): 2640 ng·h/mL | Vd/F ([1]; male, human, plasma, oral, 24 mg, 24 mg (N = 6), geometric mean, read-out: Vz/F): 69.8 L | half-life ([1]; male, human, plasma, oral, 24 mg, 24 mg (N = 6), geometric mean, read-out: t1/2 (converted)): 12.7 h | AUC(0-t) ([1]; male, human, plasma, oral, 24 mg, 24 mg (N = 6), mean, read-out: AUC(0-24)): 4760 ng·h/mL | AUC(0-t) ([1]; male, human, plasma, oral, 24 mg, 24 mg (N = 6), mean, read-out: AUC(0-last)): 6240 ng·h/mL | AUC(0-t) ([1]; male, human, plasma, oral, 24 mg, SAD study, read-out: maximum value of AUC(0-24)): 6080 ng·h/mL | half-life ([1]; male, human, plasma, oral, 24 mg, across dose range 6, 12, 24 mg, read-out: apparent terminal half-life (t1/2)): 12.7 to 17.1 h | Vd/F ([1]; male, human, plasma, oral, 24 mg, across dose range 6, 12, 24 mg, read-out: apparent volume of distribution (Vz/F)): 69.8 to 91.6 L | AUC(0-t) ([1]; male, human, plasma, oral, 24 mg, highest dose level (24 mg), read-out: mean AUC(0-24)): 4760 ng·h/mL | AUC(0-inf) [1, 4]: 1740 ng·h/mL | Cmax [1, 4]: 234 ng/mL | Tmax ([1]; male, human, plasma, oral, 6 mg (N = 6), median, read-out: tmax): 2.5 h | AUC(0-inf) [1, 5]: 2770 ng·h/mL | Cmax [1, 5]: 285 ng/mL | AUC(0-inf) [1, 6]: 6580 ng·h/mL | Cmax [1, 6]: 909 ng/mL | Tmax ([1]; male, human, plasma, oral, across dose range 6, 12, 24 mg, read-out: median time of maximum concentration (Tmax)): 2.5 to 3 h | absorption after oral administration ([1]; single dose 6 mg, 12 mg, or 24 mg): rapidly absorbed | withdrawal criteria based on QTcF prolongation or safety laboratory tests [2]: No subject reached the subject withdrawal criteria | safety and tolerability ([2]; healthy subjects): safe and well tolerated | dose up to which no mortality or severe clinical signs were observed (in vivo): ≤ 625 mg/kg/day | NOAEL at 14 days (in vivo; dog, in vivo): 83 mg/kg/day | Cmin ([3]; dose cohort 12): 61.8 | Cmin ([3]; dose cohort 24): 114 | Cmin ([3]; dose cohort 48): 261 | Cmin ([3]; dose cohort 66): 102.7 | Cmin ([3]; dose cohort 90): 363 | Cmin ([3]; dose cohort 126): 831 | Cmin ([3]; dose cohort 174): 254 | Cmin ([3]; dose cohort 204): 427 | increase of mean exposures (AUC) with dose ([3]; doses above 174 mg): sub-proportional increase or plateauing of exposures | AUC(0-t) ([3]; 12 mg): 3330 ng·h/mL | Cmax ([3]; 12 mg): 685 ng/mL | AUC(0-t) ([3]; 24 mg): 5070 ng·h/mL | Cmax ([3]; 24 mg): 589 ng/mL | AUC(0-t) ([3]; 48 mg): 13700 ng·h/mL | Cmax ([3]; 48 mg): 1090 ng/mL | AUC(0-t) ([3]; 66 mg): 7780 ng·h/mL | Cmax ([3]; 66 mg): 830 ng/mL | AUC(0-t) ([3]; 90 mg): 22800 ng·h/mL | Cmax ([3]; 90 mg): 2860 ng/mL | AUC(0-t) ([3]; 126 mg): 50300 ng·h/mL | Cmax ([3]; 126 mg): 4100 ng/mL | AUC(0-t) ([3]; 174 mg): 35700 ng·h/mL | Cmax ([3]; 174 mg): 4210 ng/mL | steady state reached (trough concentrations) ([3]; majority of the subjects): ≤ 3 days | accumulation at steady state ([3]; once-daily dosing): no low or minimal accumulation

Reference: patent US20260069584A1, “METHODS OF TREATING CHRONIC MYELOID LEUKEMIA USING THE TYROSINE KINASE INHIBITOR VODOBATINIB” (Sun Pharma Advanced Research Company Ltd., priority 2022, published 2026)
